Assays:
[1] = Single- and multiple-dose pharmacokinetics of an oral preparation in a murine model; assay type: in vivo; details: oral preparation of the racemic compound in lipophilic emulsion
[2] = tested on: differential cell counts (macrophages, monocytes, eosinophils, lymphocytes, neutrophils, and erythrocytes); assay: Thioglycollate/Zymosan-induced peritonitis model: differential cell counts of peritoneal lavage cells; assay type: in vivo, mice; parameters: RBC, MEAN / RBC, MEDIAN / WBC, MEAN / WBC, MEDIAN: unit not given here
Procedure: (§1) Thioglycollate/Zymosan—Induced Peritonitis Model: Wild-type mice were administered either 500 mg/kg body weight of disodium disuccinate astaxanthin (ddAst/Cardax™) in an oil emulsion vehicle, or normal saline (NS) as a negative control, by oral gavage at 24 hours intervals beginning 7 days prior to the induction of peritonitis. Peritonitis was induced experimentally as follows: mice were injected intraperitoneally with 1 ml of 4% by weight thioglycollate (Tg) broth, to induce the recruitment of proinflammatory cells to the peritoneum. Either 16 hours or 72 hours after recruitment, approximately half of the mice were injected intraperitoneally with 250 mg/kg body weight of zymosan (Z) for a further 4 hours. The mice not receiving zymosan underwent no further treatment. Peritoneal lavage was performed in control animals or animals treated with (ddAst) 16 hours post Tg injection, or 20 h following the combination of both Tg injection (16 hours) followed by Z injection (4 hours), as indicated (Tg/Z). Peritoneal lavages were performed with phosphate-buffered saline containing antioxidant (0.1 mM butylated hydroxytoluene (BHT)) and 2 mM of the metal chelator diethylenetriamine pentaacetic acid (DTPA) according to established practices in the art. The lavage suspensions were transferred to screw-capped tubes under an argon atmosphere, and immediately centrifuged at 1000 rpm in a table top microcentrifuge for 10 min at 4° C. to remove whole cells and debris. All analyses of lipid peroxidation products was performed on cell-free lavage supernatants. Cell pellets were resuspended in phosphate-buffered saline containing 0.1 mM BHT and 0.1 mM DTPA, and differential cell counts (macrophages, monocytes, eosinophils, lymphocytes, neutrophils, and erythrocytes) were performed on cytospun preparations of isolated cells according to established procedures in the art.

[3] = tested on: superoxide anion; assay: Direct superoxide anion scavenging by EPR spectroscopy (DEPMPO spin-trap) in PMA-stimulated isolated human neutrophils; assay type: cell-based; details: aqueous phase; statistical mixture of stereoisomers and individual stereoisomers
Procedure: Leukocyte Isolation and Preparation. Human polymorphonuclear leukocytes (PMNs) were isolated from freshly sampled venous blood of a single volunteer by Percoll density gradient centrifugation as described previously. Briefly, each 10 mL of whole blood was mixed with 0.8 mL of 0.1 M EDTA and 25 mL of saline. The diluted blood was then layered over 9 mL of Percoll at a specific density of 1.080 g/mL. After centrifugation at 400×g for 20 min at 20° C., the plasma, mononuclear cell, and Percoll layers were removed. Erythrocytes were subsequently lysed by addition of 18 mL of ice-cold water for 30 s, followed by 2 mL of 10× PIPES buffer (25 mM PIPES, 110 mM NaCl, and 5 mM KCl, titrated to pH 7.4 with NaOH). Cells were then pelleted at 4° C., the supernatant was decanted, and the procedure was repeated. After the second hypotonic cell lysis, cells were washed twice with PAG buffer [PIPES buffer containing 0.003% human serum albumin (HSA) and 0.1% glucose]. Afterward, PMNs were counted by light microscopy on a hemocytometer. The isolation yielded PMNs with a purity of >95%. The final pellet was then suspended in PAG-CM buffer (PAG buffer with 1 mM CaCl2 and 1 mM MgCl2). EPR Measurements. All EPR measurements were performed using a Bruker ER 300 EPR spectrometer operating at X-band with a TM110 cavity as previously described. The microwave frequency was measured with a Model 575 microwave counter (EIP Microwave, Inc., San Jose, Calif.). To measure superoxide anion (O2) generation from phorbol-ester (PMA)-stimulated PMNs, EPR spin-trapping studies were performed using the spin trap DEPMPO (Oxis, Portland, Oreg.) at 10 mM. 1×10^6 PMNs were stimulated with PMA (1 ng/mL) and loaded into capillary tubes for EPR measurements. To determine the radical scavenging ability of 3 and 9 in aqueous and ethanolic formulations, PMNs were pre-incubated for 5 minutes with test compound, followed by PMA stimulation.
Instrument settings used in the spin-trapping experiments were as follows: modulation amplitude, 0.32 G; time constant, 0.16 s; scan time, 60 s; modulation frequency, 100 kHz; microwave power, 20 milliwatts; and microwave frequency, 9.76 GHz. The samples were placed in a quartz EPR flat cell, and spectra were recorded. The component signals in the spectra were identified and quantified as reported previously.

[4] = tested on: ischemia-reperfusion injury; assay: Ischemia-reperfusion injury, experimental infarction model; assay type: in vivo, rodents; details: intravenous pretreatment
[5] = tested on: o-tyrosine (oY/F); assay: Thioglycollate/Zymosan-induced peritonitis model: molar ratios of o-tyrosine (oY/F); assay type: in vivo, mice
Procedure: as §1
Electrospray ionization tandem mass spectrometry was used to simultaneously quantify individual molecular species of HETEs, HPETEs, the prostaglandin PGF2α, F2-isoprostanoids, hydroxy- and hydroperoxy-octadecadienoic acids (H(P)ODEs), and their precursors, arachidonic acid (AA) and linoleic acid (LA). Additionally, the molar ratios of o-tyrosine (oY/F). were measured.

[6] = 16 Hour Thioglycollate/4 Hour Zymosan
[7] = 72 Hour Thioglycollate/4 Hour Zymosan

## CC1=C(/C=C/C(C)=C/C=C/C(C)=C/C=C/C=C(C)/C=C/C=C(C)/C=C/C2=C(C)C(=O)C(OC(=O)CCC(=O)O)CC2(C)C)C(C)(C)CC(OC(=O)CCC(=O)O)C1=O (stereo not shown) [Cardax, disodium disuccinate astaxanthin]
[1]
  plasma and tissue levels of nonesterified astaxanthin: significant plasma and tissue levels of nonesterified astaxanthin were achieved
[2]; 16 Hour Thioglycollate
  ALV MAC %, MEAN: 3.000%
  EOSIN %, MEAN: 6.000%
  LYMPHS %, MEAN: 23.000%
  MONOS %, MEAN: 39.667%
  NEUTRO %, MEAN: 25.333%
  OTHER %, MEAN: 2.667%
  RBC, MEAN: 449.33
  REACTIVE %, MEAN: 0.333%
  RES EP %, MEAN: 0.000%
  WBC, MEAN: 528.67
  ALV MAC %, MEDIAN: 3.000%
  EOSIN %, MEDIAN: 4.000%
  LYMPHS %, MEDIAN: 19.000%
  MONOS %, MEDIAN: 35.000%
  NEUTRO %, MEDIAN: 21.000%
  OTHER %, MEDIAN: 2.000%
  RBC, MEDIAN: 350.00
  REACTIVE %, MEDIAN: 0.000%
  RES EP %, MEDIAN: 0.000%
  WBC, MEDIAN: 475.00
[2]; 72 Hour Thioglycollate
  ALV MAC %, MEAN: 15.667%
  EOSIN %, MEAN: 1.667%
  LYMPHS %, MEAN: 53.000%
  MONOS %, MEAN: 27.000%
  NEUTRO %, MEAN: 0.000%
  OTHER %, MEAN: 2.333%
  RBC, MEAN: 90.333
  REACTIVE %, MEAN: 0.333%
  RES EP %, MEAN: 0.000%
  WBC, MEAN: 435.33
  ALV MAC %, MEDIAN: 15.000%
  EOSIN %, MEDIAN: 1.000%
  LYMPHS %, MEDIAN: 55.000%
  MONOS %, MEDIAN: 32.000%
  NEUTRO %, MEDIAN: 0.000%
  OTHER %, MEDIAN: 2.000%
  RBC, MEDIAN: 69.000
  REACTIVE %, MEDIAN: 0.000%
  RES EP %, MEDIAN: 0.000%
  WBC, MEDIAN: 448.00
[3]
  direct scavenging of superoxide anion: potent direct scavengers of superoxide anion in the aqueous phase
[4]
  cardioprotection: significantly cardioprotective
[4]; highest dose tested
  myocardial salvage: up to 56%
[5]; [6]
  oY/F (mmol/mol), MEAN: 0.145 mmol/mol
  oY/F (mmol/mol), MEDIAN: 0.117 mmol/mol
[5]; 16 Hour Thioglycollate
  oY/F (mmol/mol), MEAN: 0.678 mmol/mol
  oY/F (mmol/mol), MEDIAN: 0.521 mmol/mol
[5]; [7]
  oY/F (mmol/mol), MEAN: 0.249 mmol/mol
  oY/F (mmol/mol), MEDIAN: 0.118 mmol/mol
[5]; 72 Hour Thioglycollate
  oY/F (mmol/mol), MEAN: 0.257 mmol/mol
  oY/F (mmol/mol), MEDIAN: 0.198 mmol/mol
[5]; 16 hours Tg/4 hour Z, 500 mg/kg oral gavage
  oY/F compared to NS: significant decrease
[5]; Baseline
  oY/F (mmol/mol), MEAN: 0.595 mmol/mol
  oY/F (mmol/mol), MEDIAN: 0.565 mmol/mol

From patent US7691901B2, “Carotenoid analogs or derivatives for the inhibition and amelioration of inflammation” (Cardax Pharmaceuticals Inc., priority 2004, dated 2010)
